Results reported in US20230407243A1, “GENETIC PLATFORM TO INVESTIGATE THE FUNCTIONS OF BACTERIAL DRUG EFFLUX PUMPS” (priority 2022, published 2023).

How the values were obtained:
Assay type in all cases: cell-based, Escherichia coli
[1] = tested on: wild-type (WT) K-12-Pore; experiment: microbe, parasite or virus in culture; details: technical duplicate
In short: (§1)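 E. coli strains carrying a genomically integrated constitutive fhuA ΔC/Δ4L pore were grown 18 h in LB at 37 °C, then diluted 1/2000 in MHB II from OD600 ~1.0. Compounds were tested in duplicate, 2-fold serial titration, for 18 h at 37 °C with shaking. MIC came from OD600 with the pre-incubation background subtracted.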

[2] = tested on: ΔtolC-Pore; experiment: microbe, parasite or virus in culture; details: technical duplicate
In short: as §1

[3] = tested on: EKO-35 araC::mdtBC; experiment: MIC susceptibility profiling, efflux platform
In short: (§2)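 Broth MIC in cation-adjusted Mueller-Hinton (MHB II) following twofold compound titration in duplicate. Bacteria were prepared at OD600 ~1.0 in PBS and diluted 1/2000. Endpoint OD600 after 18 h at 37 °C was corrected using the pre-incubation reading.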

[4] = tested on: EKO-35 araC::mdtEF; experiment: MIC susceptibility profiling, efflux platform
In short: as §2

[5] = tested on: EKO-35 araC::acrBD408A; experiment: MIC susceptibility profiling, efflux platform
In short: as §2

[6] = tested on: EKO-35 araC::acrEF; experiment: MIC susceptibility profiling, efflux platform
In short: as §2

[7] = tested on: EKO-35 araC::macAB; experiment: MIC susceptibility profiling, efflux platform
In short: as §2

[8] = tested on: EKO-35 araC::mexCD (MexCD from P. aeruginosa); experiment: MIC susceptibility profiling, efflux platform
In short: as §2

[9] = tested on: EKO-35 araC::emrKY; experiment: MIC susceptibility profiling, efflux platform
In short: as §2

[10] = tested on: EKO-35 araC::emrAB; experiment: MIC susceptibility profiling, efflux platform
In short: as §2

[11] = tested on: EKO-35 araC::acrB; experiment: MIC susceptibility profiling, efflux platform
In short: as §2

[12] = tested on: EKO-35 araC::acrD; experiment: MIC susceptibility profiling, efflux platform
In short: as §2

[13] = tested on: EKO-35 araC::acrD Pore; experiment: MIC susceptibility profiling, porinated efflux platform
In short: as §1

[14] = tested on: EKO-35 araC::acrBD408A Pore; experiment: as above
In short: as §1

[15] = tested on: EKO-35 araC::emrKY Pore; experiment: as above
In short: as §1

[16] = tested on: E. coli EKO-35; experiment: microbe, parasite or virus in culture
In short: as §2

[17] = tested on: E. coli ΔtolC; experiment: microbe, parasite or virus in culture; details: technical duplicate
In short: as §2

[18] = tested on: wild-type E. coli K-12 str. BW25113; experiment: microbe, parasite or virus in culture; details: technical duplicate
In short: as §2

[19] = tested on: EKO-35-Pore; experiment: MIC susceptibility profiling, porinated strain
In short: as §1

[20] = Table 13B, non-porinated, technical duplicate
[21] = Table 13A, non-porinated, technical duplicate
[22] = Table 14A, porinated, technical duplicate

N#CC(=NNc1cccc(C(F)(F)F)c1)C(=O)c1ccsc1 [compound 3]
320 µg/mL: Minimum inhibitory concentration (MIC), Pore K-12 ([1]; Table 10, with pore) | Minimum inhibitory concentration, K-12 (WT)-Pore ([1]; Table 14A, porinated) | Minimum Inhibitory Concentration, EKO-35 araC::mdtBC [3, 20] | Minimum Inhibitory Concentration, EKO-35 araC::mdtEF [4, 21] | Minimum Inhibitory Concentration, EKO-35 araC::acrBD408A [5, 20] | Minimum Inhibitory Concentration, EKO-35 araC::acrEF [6, 21] | Minimum Inhibitory Concentration, EKO-35 araC::macAB [7, 20] | Minimum Inhibitory Concentration, EKO-35 araC::mexCD [8, 20] | Minimum Inhibitory Concentration, EKO-35 araC::emrKY [9, 20] | Minimum Inhibitory Concentration, EKO-35 araC::emrAB [10, 20] | Minimum Inhibitory Concentration, EKO-35 araC::acrB [11, 21] | Minimum Inhibitory Concentration, EKO-35 araC::acrD [12, 21] | Minimum inhibitory concentration, EKO-35 araC::acrD Pore [13, 22] | Minimum inhibitory concentration ([14]; EKO-35 araC::acrBD408A Pore, technical duplicate) | Minimum inhibitory concentration ([15]; EKO-35 araC::emrKY Pore, technical duplicate) | Minimum inhibitory concentration (MIC), EKO-35 ([16]; Table 10, without pore, technical duplicate) | Minimum Inhibitory Concentration, EKO-35 [16, 21] | Minimum inhibitory concentration (MIC), K-12 ([18]; Table 10, without pore) | Minimum Inhibitory Concentration, K-12 ([18]; Table 13A, non-porinated) | Minimum inhibitory concentration (MIC), Pore EKO-35 ([19]; Table 10, with pore, technical duplicate) | Minimum inhibitory concentration, EKO-35-Pore [19, 22]
2.5 µg/mL: Minimum inhibitory concentration (MIC), ΔtolC ([17]; Table 10, without pore) | Minimum Inhibitory Concentration, ΔtolC ([17]; Table 13A, non-porinated)
1.25 µg/mL: Minimum inhibitory concentration (MIC), Pore ΔtolC ([2]; Table 10, with pore) | Minimum inhibitory concentration, ΔtolC-Pore ([2]; Table 14A, porinated)
1 fold: Fold change of MICs ([3]; EKO-35 araC::mdtBC compared to EKO-35) | Fold change of MICs ([4]; EKO-35 araC::mdtEF compared to EKO-35) | Fold change of MICs ([5]; EKO-35 araC::acrBD408A compared to EKO-35) | Fold change of MICs ([6]; EKO-35 araC::acrEF compared to EKO-35) | Fold change of MICs ([7]; EKO-35 araC::macAB compared to EKO-35) | Fold change of MICs ([8]; EKO-35 araC::mexCD compared to EKO-35) | Fold change of MICs ([9]; EKO-35 araC::emrKY compared to EKO-35) | Fold change of MICs ([10]; EKO-35 araC::emrAB compared to EKO-35) | Fold change of MICs ([11]; EKO-35 araC::acrB compared to EKO-35) | Fold change of MICs ([12]; EKO-35 araC::acrD compared to EKO-35) | Fold changes of MICs ([13]; EKO-35 araC::acrD Pore compared to EKO-35-Pore) | Fold changes of MICs ([14]; EKO-35 araC::acrBD408A Pore compared to EKO-35-Pore) | Fold changes of MICs ([15]; EKO-35 araC::emrKY Pore compared to EKO-35-Pore) | Fold change of MICs ([16]; EKO-35 compared to EKO-35 (reference)) | Fold changes of MICs ([19]; EKO-35-Pore compared to EKO-35-Pore (reference))
